One data set concerns the target Cytochrome P450 2C19 (Homo sapiens, UniProt P33261). The settings on record: bti-tn-5b1-4. Further: in other assays of this panel Not Active means under 50% inhibition at 10 µM.
Data set [1] has as its target Kappa-type opioid receptor (Homo sapiens, UniProt P41145). As to the kind of experiment: DRUGMATRIX: Opiate kappa (OP2, KOP) radioligand binding (ligand: [3H] Diprenorphine). The class given is cell membranes, HEK293, Membrane. Conditions: Not Active = under 50% inhibition at 10 µM.
The target of the next data set is T1, Substance-K receptor (Homo sapiens, UniProt P21452). Further: in other assays of this panel Not Active means under 50% inhibition at 10 µM.
T1 sequence (P21452 whole entry): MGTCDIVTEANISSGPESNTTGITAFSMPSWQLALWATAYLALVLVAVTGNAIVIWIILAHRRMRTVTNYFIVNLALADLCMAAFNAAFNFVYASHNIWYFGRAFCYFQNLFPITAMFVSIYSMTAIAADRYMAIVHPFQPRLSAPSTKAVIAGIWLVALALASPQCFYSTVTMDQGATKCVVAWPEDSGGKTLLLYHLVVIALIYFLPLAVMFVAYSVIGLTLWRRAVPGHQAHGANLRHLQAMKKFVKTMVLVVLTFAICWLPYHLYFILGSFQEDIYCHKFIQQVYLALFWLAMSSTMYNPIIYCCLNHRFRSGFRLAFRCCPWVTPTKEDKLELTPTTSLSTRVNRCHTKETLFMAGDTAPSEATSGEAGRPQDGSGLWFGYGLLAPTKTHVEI
The class given is cell membranes, CHO, Membrane.

The target in data set [2] is Voltage-gated inwardly rectifying potassium channel KCNH2 (Homo sapiens, UniProt Q12809). Conditions: hek293. Further: in other assays of this panel Not Active means under 50% inhibition at 10 µM.
Chain of Voltage-gated inwardly rectifying potassium channel KCNH2 (Q12809 whole entry): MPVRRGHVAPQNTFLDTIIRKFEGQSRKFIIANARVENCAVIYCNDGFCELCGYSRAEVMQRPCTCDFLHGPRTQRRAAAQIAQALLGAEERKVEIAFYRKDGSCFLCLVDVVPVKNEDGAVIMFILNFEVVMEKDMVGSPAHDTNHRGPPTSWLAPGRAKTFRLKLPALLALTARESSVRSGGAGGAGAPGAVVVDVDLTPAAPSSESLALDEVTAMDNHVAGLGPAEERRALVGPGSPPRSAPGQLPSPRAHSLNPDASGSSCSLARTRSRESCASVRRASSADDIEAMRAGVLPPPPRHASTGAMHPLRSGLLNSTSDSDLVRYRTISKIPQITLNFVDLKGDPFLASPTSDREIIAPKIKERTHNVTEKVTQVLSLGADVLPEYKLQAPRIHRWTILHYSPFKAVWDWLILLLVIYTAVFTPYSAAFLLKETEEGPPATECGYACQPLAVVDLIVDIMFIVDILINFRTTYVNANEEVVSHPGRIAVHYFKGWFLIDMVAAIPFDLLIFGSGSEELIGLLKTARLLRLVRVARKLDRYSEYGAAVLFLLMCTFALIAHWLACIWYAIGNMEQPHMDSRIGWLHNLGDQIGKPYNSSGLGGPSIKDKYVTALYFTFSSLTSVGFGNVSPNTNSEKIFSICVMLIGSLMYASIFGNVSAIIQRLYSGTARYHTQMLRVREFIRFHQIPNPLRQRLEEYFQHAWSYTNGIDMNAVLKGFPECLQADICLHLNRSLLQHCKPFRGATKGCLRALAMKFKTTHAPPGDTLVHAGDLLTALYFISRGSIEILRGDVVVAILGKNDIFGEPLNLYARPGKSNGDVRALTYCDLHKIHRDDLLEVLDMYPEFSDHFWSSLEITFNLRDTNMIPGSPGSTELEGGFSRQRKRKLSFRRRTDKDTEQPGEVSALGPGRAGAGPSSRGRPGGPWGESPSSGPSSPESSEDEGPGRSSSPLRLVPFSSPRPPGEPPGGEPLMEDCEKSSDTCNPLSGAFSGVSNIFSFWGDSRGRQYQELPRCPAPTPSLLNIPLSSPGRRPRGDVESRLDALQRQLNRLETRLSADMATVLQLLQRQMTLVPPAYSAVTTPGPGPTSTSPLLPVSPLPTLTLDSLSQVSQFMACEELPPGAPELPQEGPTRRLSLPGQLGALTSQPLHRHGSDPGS
The nature of data set [3]: DRUGMATRIX: Platelet-Derived Growth Factor (PDGF) radioligand binding (ligand: [125I] PDGF). The class given is cell-based. The settings on record: nih3t3; Not Active = under 50% inhibition at 10 µM.
For data set [4], the target named is 5-hydroxytryptamine receptor 1B (Rattus norvegicus, UniProt P28564). The class given is cell membranes, Wistar, Cerebral cortex, Membrane. Further: in other assays of this panel Not Active means under 50% inhibition at 10 µM.
Chain of 5-hydroxytryptamine receptor 1B (P28564 whole entry): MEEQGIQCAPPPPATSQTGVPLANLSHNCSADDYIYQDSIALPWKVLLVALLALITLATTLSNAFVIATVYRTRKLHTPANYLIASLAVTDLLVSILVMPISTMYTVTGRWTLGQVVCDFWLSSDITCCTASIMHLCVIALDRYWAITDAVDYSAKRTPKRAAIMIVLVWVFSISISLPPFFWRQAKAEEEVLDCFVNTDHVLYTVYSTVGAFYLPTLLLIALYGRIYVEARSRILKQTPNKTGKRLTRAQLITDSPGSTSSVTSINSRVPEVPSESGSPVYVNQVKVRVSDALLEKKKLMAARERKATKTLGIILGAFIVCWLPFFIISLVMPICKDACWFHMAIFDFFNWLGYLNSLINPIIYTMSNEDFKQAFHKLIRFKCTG

Molecules are shown by their SMILES.

Chain of Cytochrome P450 2C19 (P33261 whole entry): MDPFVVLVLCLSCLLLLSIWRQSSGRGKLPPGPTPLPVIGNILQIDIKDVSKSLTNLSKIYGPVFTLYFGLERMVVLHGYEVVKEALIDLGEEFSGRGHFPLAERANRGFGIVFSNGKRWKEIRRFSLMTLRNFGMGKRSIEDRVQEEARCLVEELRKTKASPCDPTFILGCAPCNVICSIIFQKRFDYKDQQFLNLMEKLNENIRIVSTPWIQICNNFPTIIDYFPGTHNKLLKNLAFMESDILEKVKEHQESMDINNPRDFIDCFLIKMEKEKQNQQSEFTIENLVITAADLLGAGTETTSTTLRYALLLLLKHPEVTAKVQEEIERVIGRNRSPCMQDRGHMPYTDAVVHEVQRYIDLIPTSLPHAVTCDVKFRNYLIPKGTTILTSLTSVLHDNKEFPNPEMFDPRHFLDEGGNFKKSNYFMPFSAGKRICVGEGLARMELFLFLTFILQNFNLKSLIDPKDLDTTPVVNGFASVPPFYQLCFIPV
Chain of Kappa-type opioid receptor (P41145 whole entry): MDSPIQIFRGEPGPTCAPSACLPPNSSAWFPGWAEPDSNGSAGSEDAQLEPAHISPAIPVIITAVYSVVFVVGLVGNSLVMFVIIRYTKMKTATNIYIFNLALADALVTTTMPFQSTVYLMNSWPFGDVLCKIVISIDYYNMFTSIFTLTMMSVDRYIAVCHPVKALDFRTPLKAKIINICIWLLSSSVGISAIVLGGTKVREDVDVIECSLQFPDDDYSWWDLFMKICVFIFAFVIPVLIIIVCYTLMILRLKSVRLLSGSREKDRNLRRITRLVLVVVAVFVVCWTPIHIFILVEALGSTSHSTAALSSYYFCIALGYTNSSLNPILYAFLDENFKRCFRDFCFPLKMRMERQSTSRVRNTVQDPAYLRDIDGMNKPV

In the case of `Cc1c(O)cccc1C(=O)N[C@@H](CSc1ccccc1)[C@H](O)CN1C[C@H]2CCCC[C@H]2C[C@H]1C(=O)NC(C)(C)C`, the IC50 result against Cytochrome P450 2C19 is “Not Active”; in data set [1] (read-out: IC50), 36 µM; on Substance-K receptor (read-out: IC50), 29.4 µM; in data set [2] it was “Not Active”; in data set [3], “Not Active”; in data set [4] it was “Not Active”. Besides, the inhibition constant (Ki) entry at Cytochrome P450 2C19 is “Not Active”; in data set [1], 14.4 µM; on Substance-K receptor (read-out: Ki) it was 9.79 µM; in data set [2], “Not Active”; in data set [3], “Not Active”.
Take `CC(O)COC[C@H]1O[C@@H]2O[C@H]3[C@H](O)[C@@H](O)[C@@H](O[C@H]4[C@H](O)[C@@H](O)[C@@H](O[C@H]5[C@H](O)[C@@H](O)[C@@H](O[C@H]6[C@H](O)[C@@H](O)[C@@H](O[C@H]7[C@H](O)[C@@H](O)[C@@H](O[C@H]8[C@H](O)[C@@H](O)[C@@H](O[C@H]1[C@H](O)[C@H]2O)O[C@@H]8COCC(C)O)O[C@@H]7COCC(C)O)O[C@@H]6COCC(C)O)O[C@@H]5COCC(C)O)O[C@@H]4COCC(C)O)O[C@@H]3COCC(C)O` (stereo partly drawn) [2-HYDROXYPROPYL-BETA-CYCLODEXTRIN]: the 50% inhibitory concentration (IC50) result (against Cytochrome P450 2C19; in data set [1] (hek293); against Substance-K receptor (cho); in data set [2]; in data set [3]; in data set [4]) was “Not Active” each time. Moreover, the Ki entry (on Cytochrome P450 2C19; in data set [2]; in data set [3]) was “Not Active” throughout.
On to `NC(=O)c1cccc(N)c1` [3-AMINOBENZAMIDE], for which the IC50 result (on Cytochrome P450 2C19; in data set [1] (hek293); at Substance-K receptor (cho); in data set [2]; in data set [3]; in data set [4]) was “Not Active” in each case. The Ki entry (at Cytochrome P450 2C19; in data set [2]; in data set [3]) was “Not Active” each time.
Consider `C[C@H]1O[C@H](O[C@H]2[C@H](O)[C@@H](O)[C@@H](O[C@H]3[C@H](O)[C@@H](O)C(O)O[C@@H]3CO)O[C@@H]2CO)[C@H](O)[C@@H](O)[C@@H]1N[C@H]1C=C(CO)[C@@H](O)[C@H](O)[C@H]1O` (some centres not stated) [ACARBOSE], for which the IC50 entry (on Cytochrome P450 2C19; in data set [1] (hek293); on Substance-K receptor (cho); in data set [2]; in data set [3]; in data set [4]) was “Not Active” throughout. Also, the inhibition constant (Ki) entry (on Cytochrome P450 2C19; in data set [2]; in data set [3]) was “Not Active” throughout.
As to `CC[C@H]1[C@@H]2C[C@H]3[C@@H]4N(C)c5ccccc5[C@]45C[C@@H]([C@@H]2[C@H]5O)N3[C@@H]1O` [AJMALINE], the IC50 entry (at Cytochrome P450 2C19; in data set [1] (hek293); at Substance-K receptor (cho); in data set [2]; in data set [3]; in data set [4]) was “Not Active” throughout. Besides, the inhibitory constant (Ki) entry (on Cytochrome P450 2C19; in data set [2]; in data set [3]) was “Not Active” throughout.
For `NCCCNCCSP(=O)(O)O` [AMIFOSTINE], the 50% inhibitory concentration (IC50) result (against Cytochrome P450 2C19; in data set [1] (hek293); on Substance-K receptor (cho); in data set [2]; in data set [3]; in data set [4]) was “Not Active” each time. Also, the inhibitory constant (Ki) result (on Cytochrome P450 2C19; in data set [2]; in data set [3]) was “Not Active” each time.
Take `CC(=O)Oc1ccccc1C(=O)O` [ASPIRIN]: the IC50 result (against Cytochrome P450 2C19; in data set [1] (hek293); against Substance-K receptor (cho); in data set [2]; in data set [3]; in data set [4]) was “Not Active” throughout. For the same compound, the inhibitory constant (Ki) entry (on Cytochrome P450 2C19; in data set [2]; in data set [3]) was “Not Active” each time.
For `CC(=O)OC[C@H]1O[C@@H](n2ncc(=O)[nH]c2=O)[C@H](OC(C)=O)[C@@H]1OC(C)=O` [AZARIBINE], the IC50 entry (against Cytochrome P450 2C19; in data set [1] (hek293); on Substance-K receptor (cho); in data set [2]; in data set [3]; in data set [4]) was “Not Active” each time. Further, the inhibition constant Ki result (at Cytochrome P450 2C19; in data set [2]; in data set [3]) was “Not Active” each time.
In the case of `C[C@H]1[C@H](NC(=O)/C(=N\OC(C)(C)C(=O)O)c2csc(N)n2)C(=O)N1S(=O)(=O)O` [AZTREONAM], the half-inhibitory concentration (IC50) result (on Cytochrome P450 2C19; in data set [1] (hek293); against Substance-K receptor (cho); in data set [2]; in data set [3]; in data set [4]) was “Not Active” in each case. The inhibitory constant (Ki) result (at Cytochrome P450 2C19; in data set [2]; in data set [3]) was “Not Active” in each case.
`O=C(O)CCNC(=O)c1ccc(/N=N/c2ccc(O)c(C(=O)O)c2)cc1` [BALSALAZIDE]: the half-inhibitory concentration (IC50) result (at Cytochrome P450 2C19; in data set [1] (hek293); on Substance-K receptor (cho); in data set [2]; in data set [3]; in data set [4]) was “Not Active” each time. The Ki result (on Cytochrome P450 2C19; in data set [2]; in data set [3]) was “Not Active” throughout.
`COc1cc(OC)c(C(=O)CCCN2CCCC2)c(OC)c1` [BUFLOMEDIL]: the half-inhibitory concentration (IC50) result (against Cytochrome P450 2C19; in data set [1] (hek293); at Substance-K receptor (cho); in data set [2]; in data set [3]; in data set [4]) was “Not Active” each time. The inhibition constant Ki result (at Cytochrome P450 2C19; in data set [2]; in data set [3]) was “Not Active” in each case.
As for `Cn1c(=O)c2c(ncn2C)n(C)c1=O` [CAFFEINE], the IC50 entry (against Cytochrome P450 2C19; in data set [1] (hek293); at Substance-K receptor (cho); in data set [2]; in data set [3]; in data set [4]) was “Not Active” in each case. The Ki result (at Cytochrome P450 2C19; in data set [2]; in data set [3]) was “Not Active” throughout.
As to `ClC(Cl)(Cl)Cl` [CARBON TETRACHLORIDE], the IC50 result (against Cytochrome P450 2C19; in data set [1] (hek293); against Substance-K receptor (cho); in data set [2]; in data set [3]; in data set [4]) was “Not Active” throughout. Besides, the inhibition constant (Ki) result (on Cytochrome P450 2C19; in data set [2]; in data set [3]) was “Not Active” in each case.
Take `CO/N=C(\C(=O)N[C@@H]1C(=O)N2C(C(=O)O)=C(COC(C)=O)CS[C@H]12)c1csc(N)n1` [CEFOTAXIME]: the IC50 result (against Cytochrome P450 2C19; in data set [1] (hek293); against Substance-K receptor (cho); in data set [2]; in data set [3]; in data set [4]) was “Not Active” in each case. Also, the Ki entry (at Cytochrome P450 2C19; in data set [2]; in data set [3]) was “Not Active” throughout.
For `CNC1=Nc2ccc(Cl)cc2C(c2ccccc2)=[N+]([O-])C1` [CHLORDIAZEPOXIDE], the half-maximal inhibitory concentration (IC50) result (against Cytochrome P450 2C19; in data set [1] (hek293); against Substance-K receptor (cho); in data set [2]; in data set [3]; in data set [4]) was “Not Active” throughout. The Ki result (at Cytochrome P450 2C19; in data set [2]; in data set [3]) was “Not Active” each time.

By IC50 is commonly meant the concentration at which inhibition is half-maximal. What is called Ki is the dissociation constant of the complex between target and ligand, obtained from inhibition or displacement.

The values above are taken from ChEMBL document CHEMBL1909046, “DrugMatrix in vitro pharmacology data”.
